Measurements as given in PubChem BioAssay (NCI).
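Tested at 5 concentrations; 48 h exposure; 96-well plates; endpoints linearly interpolated, else capped at highest concentration. TGI is the concentration that stops growth completely.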

Tests used:
Test in all cases: NCI tumour cell line growth inhibition, 48 h
786-0 renal = tested on: 786-0 renal
A498 renal = tested on: A498 renal
A549 NSCLC = tested on: A549 NSCLC
ACHN renal = tested on: ACHN renal
BT-549 breast = tested on: BT-549 breast
CAKI-1 renal = tested on: CAKI-1 renal
CCRF-CEM leukemia = tested on: CCRF-CEM leukemia
COLO 205 colon = tested on: COLO 205 colon
DU-145 prostate = tested on: DU-145 prostate
EKVX NSCLC = tested on: EKVX NSCLC
HCC-2998 colon = tested on: HCC-2998 colon
HCT-116 colon = tested on: HCT-116 colon
HCT-15 colon = tested on: HCT-15 colon
HL-60(TB) leukemia = tested on: HL-60(TB) leukemia
HOP-62 NSCLC = tested on: HOP-62 NSCLC
HOP-92 NSCLC = tested on: HOP-92 NSCLC
HS 578T breast = tested on: HS 578T breast
HT29 colon = tested on: HT29 colon
IGROV1 ovarian = tested on: IGROV1 ovarian
K-562 leukemia = tested on: K-562 leukemia
KM12 colon = tested on: KM12 colon
LOX IMVI melanoma = tested on: LOX IMVI melanoma
M14 melanoma = tested on: M14 melanoma
MALME-3M melanoma = tested on: MALME-3M melanoma
MCF7 breast = tested on: MCF7 breast
MDA-MB-231 breast = tested on: MDA-MB-231 breast
MDA-MB-435 = tested on: MDA-MB-435
MDA-N = tested on: MDA-N
MOLT-4 leukemia = tested on: MOLT-4 leukemia
NCI-H226 lung = tested on: NCI-H226 lung
NCI-H23 lung = tested on: NCI-H23 lung
NCI-H460 lung = tested on: NCI-H460 lung
NCI-H522 lung = tested on: NCI-H522 lung
NCI/ADR-RES ovarian = tested on: NCI/ADR-RES ovarian
OVCAR-3 ovarian = tested on: OVCAR-3 ovarian
OVCAR-4 ovarian = tested on: OVCAR-4 ovarian
OVCAR-5 ovarian = tested on: OVCAR-5 ovarian
OVCAR-8 ovarian = tested on: OVCAR-8 ovarian
PC-3 prostate = tested on: PC-3 prostate
RXF 393 renal = tested on: RXF 393 renal
SF-268 CNS = tested on: SF-268 CNS
SF-295 CNS = tested on: SF-295 CNS
SF-539 CNS = tested on: SF-539 CNS
SK-MEL-2 melanoma = tested on: SK-MEL-2 melanoma
SK-MEL-28 melanoma = tested on: SK-MEL-28 melanoma
SK-MEL-5 melanoma = tested on: SK-MEL-5 melanoma
SK-OV-3 ovarian = tested on: SK-OV-3 ovarian
SN12C renal = tested on: SN12C renal
SNB-19 CNS = tested on: SNB-19 CNS
SNB-75 CNS = tested on: SNB-75 CNS
SW-620 colon = tested on: SW-620 colon
T-47D breast = tested on: T-47D breast
TK-10 renal = tested on: TK-10 renal
U251 CNS = tested on: U251 CNS
UACC-257 melanoma = tested on: UACC-257 melanoma
UACC-62 melanoma = tested on: UACC-62 melanoma
RPMI-8226 leukemia = tested on: RPMI-8226 leukemia
SR leukemia = tested on: SR leukemia

In the case of Cc1ccc(-c2cc(-c3ccc(Cl)cc3)nc(/N=C3\C(=O)N(CN4CCCCC4)c4ccc(Cl)cc43)n2)cc1, the TGI (786-0 renal) is reported as 44.6 µM, the TGI (A498 renal) is reported as 42.3 µM and the TGI (A549 NSCLC) is reported as 57.2 µM. The TGI (ACHN renal) was 92.5 µM, the TGI (BT-549 breast) was greater than 100 µM and the TGI (CAKI-1 renal) was 64.7 µM. It also gave a TGI (CCRF-CEM leukemia) greater than 100 µM, a TGI (COLO 205 colon) of 80.5 µM and a TGI (DU-145 prostate) greater than 100 µM. It also gave a TGI (EKVX NSCLC) greater than 100 µM, a TGI (HCC-2998 colon) of 29.7 µM and a TGI (HCT-116 colon) of 76.1 µM. For the same molecule, the TGI (HCT-15 colon) was greater than 100 µM, the TGI (HL-60(TB) leukemia) was 62.4 µM and the TGI (HOP-62 NSCLC) was 98.2 µM. It also gave a TGI (HOP-92 NSCLC) of 51.2 µM, a TGI (HS 578T breast) of 49.4 µM and a TGI (HT29 colon) greater than 100 µM. It also gave a TGI (IGROV1 ovarian) of 34.2 µM, a TGI (K-562 leukemia) greater than 100 µM and a TGI (KM12 colon) of 35.4 µM. It also gave a TGI (LOX IMVI melanoma) of 53 µM, a TGI (M14 melanoma) of 46.6 µM and a TGI (MALME-3M melanoma) greater than 100 µM. For the same molecule, the TGI (MCF7 breast) was 77.9 µM, the TGI (MDA-MB-231 breast) was greater than 100 µM and the TGI (MDA-MB-435) was 42.9 µM. It also gave a TGI (MDA-N) of 46.2 µM, a TGI (MOLT-4 leukemia) of 63.4 µM and a TGI (NCI-H226 lung) greater than 100 µM. It also gave a TGI (NCI-H23 lung) of 51.5 µM, a TGI (NCI-H460 lung) greater than 100 µM and a TGI (NCI-H522 lung) of 27.8 µM. The TGI (NCI/ADR-RES ovarian) was 62.4 µM, the TGI (OVCAR-3 ovarian) was greater than 100 µM and the TGI (OVCAR-4 ovarian) was greater than 100 µM. It also gave a TGI (OVCAR-5 ovarian) greater than 100 µM, a TGI (OVCAR-8 ovarian) of 38.8 µM and a TGI (PC-3 prostate) greater than 100 µM. It also gave a TGI (RXF 393 renal) of 33.2 µM, a TGI (SF-268 CNS) of 40.3 µM and a TGI (SF-295 CNS) greater than 100 µM. The TGI (SF-539 CNS) was 61.5 µM, the TGI (SK-MEL-2 melanoma) was 39.3 µM and the TGI (SK-MEL-28 melanoma) was greater than 100 µM. It also gave a TGI (SK-MEL-5 melanoma) of 48.1 µM, a TGI (SK-OV-3 ovarian) greater than 100 µM and a TGI (SN12C renal) of 62.3 µM. For the same molecule, the TGI (SNB-19 CNS) was 34.7 µM, the TGI (SNB-75 CNS) was greater than 100 µM and the TGI (SW-620 colon) was greater than 100 µM. It also gave a TGI (T-47D breast) greater than 100 µM, a TGI (TK-10 renal) of 71.1 µM and a TGI (U251 CNS) of 76.2 µM. For the same molecule, the TGI (UACC-257 melanoma) was 71.1 µM and the TGI (UACC-62 melanoma) was greater than 100 µM.

Work on CC(C)=CC(=O)O[C@@H]1CC(C)(C)CC2C3=CCC4[C@]56CC[C@](O)(OC5)C(C)(C)C6CC[C@@]4(C)C3(C)CC[C@]21C(=O)O (some centres not stated) yielded a TGI (786-0 renal) greater than 100 µM, a TGI (A498 renal) greater than 100 µM and a TGI (A549 NSCLC) greater than 100 µM. The TGI (ACHN renal) was 82.8 µM, the TGI (BT-549 breast) was greater than 100 µM and the TGI (CAKI-1 renal) was greater than 100 µM. It also gave a TGI (CCRF-CEM leukemia) greater than 100 µM, a TGI (COLO 205 colon) of 50.4 µM and a TGI (DU-145 prostate) greater than 100 µM. It also gave a TGI (EKVX NSCLC) greater than 100 µM, a TGI (HCC-2998 colon) greater than 100 µM and a TGI (HCT-116 colon) greater than 100 µM. The TGI (HCT-15 colon) was greater than 100 µM, the TGI (HL-60(TB) leukemia) was greater than 100 µM and the TGI (HOP-62 NSCLC) was greater than 100 µM. It also gave a TGI (HS 578T breast) greater than 100 µM, a TGI (HT29 colon) greater than 100 µM and a TGI (IGROV1 ovarian) greater than 100 µM. The TGI (K-562 leukemia) was greater than 100 µM, the TGI (KM12 colon) was greater than 100 µM and the TGI (LOX IMVI melanoma) was 44.4 µM. The TGI (M14 melanoma) was greater than 100 µM, the TGI (MALME-3M melanoma) was greater than 100 µM and the TGI (MCF7 breast) was greater than 100 µM. It also gave a TGI (MDA-MB-231 breast) greater than 100 µM, a TGI (MDA-MB-435) greater than 100 µM and a TGI (MDA-N) greater than 100 µM. For the same molecule, the TGI (MOLT-4 leukemia) was greater than 100 µM, the TGI (NCI-H226 lung) was greater than 100 µM and the TGI (NCI-H23 lung) was 89.4 µM. The TGI (NCI-H460 lung) was greater than 100 µM, the TGI (NCI-H522 lung) was greater than 100 µM and the TGI (NCI/ADR-RES ovarian) was greater than 100 µM. It also gave a TGI (OVCAR-3 ovarian) greater than 100 µM, a TGI (OVCAR-4 ovarian) greater than 100 µM and a TGI (OVCAR-5 ovarian) greater than 100 µM. For the same molecule, the TGI (OVCAR-8 ovarian) was greater than 100 µM, the TGI (PC-3 prostate) was greater than 100 µM and the TGI (RPMI-8226 leukemia) was greater than 100 µM. For the same molecule, the TGI (RXF 393 renal) was greater than 100 µM, the TGI (SF-268 CNS) was greater than 100 µM and the TGI (SF-295 CNS) was greater than 100 µM. It also gave a TGI (SF-539 CNS) greater than 100 µM, a TGI (SK-MEL-2 melanoma) greater than 100 µM and a TGI (SK-MEL-28 melanoma) greater than 100 µM. The TGI (SK-MEL-5 melanoma) was greater than 100 µM, the TGI (SK-OV-3 ovarian) was greater than 100 µM and the TGI (SN12C renal) was greater than 100 µM. It also gave a TGI (SNB-19 CNS) greater than 100 µM, a TGI (SR leukemia) greater than 100 µM and a TGI (SW-620 colon) greater than 100 µM. For the same molecule, the TGI (T-47D breast) was greater than 100 µM, the TGI (TK-10 renal) was greater than 100 µM and the TGI (U251 CNS) was greater than 100 µM. For the same molecule, the TGI (UACC-257 melanoma) was greater than 100 µM and the TGI (UACC-62 melanoma) was greater than 100 µM.
